Results reported in patent US4576940A, “Anti-allergic 3-indolecarboxamides” (Yoshitomi Pharmaceutical Industries, Ltd., priority 1983, dated 1986).
Where a name gives a salt, the structure may show the parent alone. Read-outs that look alike come from different tables or passages of the source.

How the values were obtained:
[1] = background, in words; cited from earlier work
histamine induced asthma = assay: Inhibitory effect on histamine induced asthma in guinea pigs; assay type: in vivo, guinea pig (female Hartley); settings: Cavia porcellus, po, read-out: Antihistaminic activity (% inhibition)
Protocol: 2. Inhibitory effect on histamine induced asthma in guinea pigs
The experiment was performed according to the method of Suyama et al. which is described in Jpn. J. Allergol. 15, 549-556, 1966. Female Hartley guinea pigs weighing 300-400 g were used in groups of 5 or more. One hour after the oral administration of test compound solution, animals were placed in a transparent square box and exposed to a 0.2% histamine hydrochloride (Nakarai Chemicals, Ltd.) saline aerosol using an ultrasonic nebulizer (Nihon Kohden, TUR-3000). Protection was assessed during the exposure period (5 minutes) by the presence or absence of loss of righting due to dyspnea. The effects of test compounds were expressed in terms of percent inhibition.

[2] = prior art, in words; cited from earlier work
5-lipoxygenase = molecular target: T1, 5-lipoxygenase (Cavia porcellus, UniProt A0A286X958); assay: 5-lipoxygenase inhibition (arachidonic acid induced chemiluminescence of peripheral leukocytes in guinea pigs); assay type: cell-based, guinea pig
T1 construct: Guinea pigs were anesthetized with ethyl ether, and the peripheral blood was collected in heparinized syringes; endogenous in cells; host or cells: guinea pig peripheral blood leukocytes (dextran sedimentation, erythrocytes lysed)
T1 sequence (A0A286X958 1-674): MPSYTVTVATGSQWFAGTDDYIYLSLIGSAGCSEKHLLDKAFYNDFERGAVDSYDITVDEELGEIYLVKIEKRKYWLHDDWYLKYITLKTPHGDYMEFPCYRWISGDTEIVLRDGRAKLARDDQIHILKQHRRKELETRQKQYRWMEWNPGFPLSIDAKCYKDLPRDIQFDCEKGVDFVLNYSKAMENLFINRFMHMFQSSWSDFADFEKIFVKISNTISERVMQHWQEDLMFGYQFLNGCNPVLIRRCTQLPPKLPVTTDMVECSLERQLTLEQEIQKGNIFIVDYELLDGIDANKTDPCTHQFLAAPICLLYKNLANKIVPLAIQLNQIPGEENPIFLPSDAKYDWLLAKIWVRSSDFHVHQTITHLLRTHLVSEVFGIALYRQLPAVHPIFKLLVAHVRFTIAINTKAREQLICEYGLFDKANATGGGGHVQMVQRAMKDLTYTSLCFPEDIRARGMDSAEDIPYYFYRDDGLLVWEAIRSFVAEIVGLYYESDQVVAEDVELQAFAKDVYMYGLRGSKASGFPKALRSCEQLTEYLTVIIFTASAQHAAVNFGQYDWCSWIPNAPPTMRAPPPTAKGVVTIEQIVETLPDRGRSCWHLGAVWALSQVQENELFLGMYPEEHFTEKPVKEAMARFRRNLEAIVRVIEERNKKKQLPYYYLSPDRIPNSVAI
Protocol: 1. Inhibitory activity on 5-lipoxygenase (Effect of test compounds on arachidonic acid induced chemiluminescence of peripheral leukocytes in guinea pigs)
(1) Isolation of leukocytes and preparation of leukocyte suspension
Guinea pigs were anesthetized with ethyl ether, and the peripheral blood was collected in heparinized syringes (10 U/ml, blood) from the abdominal aorta through a needle.
50 ml of a 6% dextran solution (molecular weight 177,000, Nakarai Chemicals Ltd.) was added to 100 ml of blood. This suspension was gently mixed, and was allowed to sediment for 60 minutes at room temperature. The upper leukocyte-rich suspension was centrifuged at 400×g for 10 minutes at room temperature. Tris-HCl buffer (pH 7.65) containing 5.0 ml of a 0.83% ammonium chloride solution was added to the cell pellet to lyse remaining erythrocytes. This suspension was centrifuged at 150×g for 10 minutes at 4° C. Eagle's MEM (10 ml) containing 10% fetal bovine serum (Flow Laboratories, Inc.) was added to the cell pellet. This suspension was centrifuged under the same conditions. The cell pellet was suspended in an equal volume of phosphate buffered saline (pH 7.4) containing 0.2% glucose and 0.2% bovine serum albumin, and this mixture was centrifuged under the same conditions. The above procedure was performed twice, and the cell pellet was suspended in the above buffer to adjust the leukocyte counts to 5×10^6 cells/ml.
(2) Chemiluminescence assay
Chemiluminescence was measured by the method of Yoshimoto et al. which is described in Biochem. Biophys. Res. Commun. 107, 779-784, 1982. Briefly, 0.3 ml of a leukocyte suspension was preincubated with 5 μl of a test compound solution of phosphate-buffered saline as controls, 0.05 ml of 1 mM luminol (Nakarai Chemicals, Ltd.) and 0.05 ml of 100 μM indomethacin (Sumitomo Chemical Co. Ltd.) After preincubation at 26° C. for 2 minutes, 100 μl of 2 mM arachidonic acid (Sigma) was added to the reaction mixture. Chemiluminescence was recorded continuously by an Aminco Chem-Glow model J4-7441S photometer equipped with a Hitachi model 056 recorder, and the peak height of luminol intensity was measured. The effects of test compounds were expressed as IC50 values (μM).

Acute toxicity in mice = settings: mouse, in vivo, 14 days observation
Protocol: (§1) 3. Acute toxicity in mice and rats
(§2) The acute toxicity of test compound No. 2 was evaluated in 120 male mice weighing 30-42 g and 120 female mice weighing 23-35 g, and in 56 male rats weighing 150-190 g and 56 female rats weighing 115-150 g by oral and intraperitoneal administration. […] LD50 values were calculated by probit method.

Acute toxicity in rats = settings: rat, in vivo, 14 days observation
Protocol: as §1, §2

[3] = prior art, in words; cited from earlier work; remark: listed apart in the source
[4] = prior art, in words; cited from earlier work; remark: listed apart in the source
[5] = arachidonic acid induced chemiluminescence, guinea pig leukocytes, median inhibition concentration, read-out: 5-lipoxygenase inhibiting activity IC50

Compound: CCCCC/C=C\C\C=C/C=C/C=C/[C@@H](SC[C@H](N)C(=O)O)[C@@H](O)CCCC(=O)O [LTE4]
- bronchoconstriction activity [1]: strong bronchoconstriction activity

Compound: CN(C)CCOC(c1ccccc1)c1ccccc1 [Comparison B, Diphenhydramine, reference compound]
- inhibition in vivo at 5 mg/kg (histamine induced asthma; 1 h): 20%
- inhibition in vivo at 25 mg/kg (histamine induced asthma; 1 h): 100%

Compound: O=C(NC1CCN(CCc2c[nH]c3ccccc23)CC1)c1ccccc1 [indoramin, 3-[2-(4-benzamidopiperid-1-yl)ethyl]indole]
- hypotensive effect [2]: possesses hypotensive activity

Compound: Cc1c(C(=O)NC2CCN(CCc3ccccc3)CC2)c2cc(O)ccc2n1-c1ccc(Cl)cc1 [Example 24, 1-(p-Chlorophenyl)-5-hydroxy-2-methyl-N-(1-(2-phenylethyl)-4-piperidyl)indole-3-carboxamide hydrochloride]
- IC50 (5-lipoxygenase; [5]): 4.2 µM

Compound: CCCCn1c(C)c(C(=O)NC2CCN(CCc3ccccc3)CC2)c2cc(O)ccc21 [Example 2, 1-butyl-5-hydroxy-2-methyl-N-(1-(2-phenylethyl)-4-piperidyl)indole-3-carboxamide]
- LD50 at 336 h (Acute toxicity in mice; ip, female mice): 1470 mg/kg
- LD50 at 336 h (Acute toxicity in mice; ip, male mice): 1430 mg/kg
- LD50 at 336 h (Acute toxicity in mice; po, female mice): > 10400 mg/kg
- LD50 at 336 h (Acute toxicity in mice; po, male mice): > 12000 mg/kg
- LD50 at 336 h (Acute toxicity in rats; ip, female rats): 1930 mg/kg
- LD50 at 336 h (Acute toxicity in rats; ip, male rats): 1940 mg/kg
- LD50 at 336 h (Acute toxicity in rats; po, female rats): > 9000 mg/kg
- LD50 at 336 h (Acute toxicity in rats; po, male rats): > 9000 mg/kg
- inhibition in vivo at 0.5 mg/kg (histamine induced asthma; 1 h): 40%
- inhibition in vivo at 2.5 mg/kg (histamine induced asthma; 1 h): 100%
- IC50 (5-lipoxygenase): 0.45 µM

Compound: Cc1c(C(=O)NC2CCN(CCc3ccccc3)CC2)c2cc(O)ccc2n1CCc1ccccc1 [Example 16, 5-Hydroxy-2-methyl-1-(2-phenylethyl)-N-(1-(2-phenylethyl)-4-piperidyl)indole-3-carboxamide hydrochloride]
- inhibition in vivo at 2.5 mg/kg (histamine induced asthma; 1 h): 100%
- IC50 (5-lipoxygenase): 1 µM

Compound: O=C(NC1CCN(CCc2c[nH]c3ccccc23)CC1)c1c[nH]c2ccccc12 [3-[2-(4-[indole-3-carboxamido]-1-piperidyl)ethyl]indole]
- hypotensive effect [2]: moderate hypotensive effect
- anti-inflammatory action [3]: effective anti-inflammatory action
- anti-histaminic activity [4]: very weak anti-histaminic activity

Compound: CCCCC/C=C\C\C=C/C=C/C=C/[C@@H](SC[C@H](N)C(=O)NCC(=O)O)[C@@H](O)CCCC(=O)O [LTD4]
- bronchoconstriction activity [1]: strong bronchoconstriction activity

Compound: Cc1c(C(=O)NC2CCN(CCc3ccccc3)CC2)c2cc(O)ccc2n1Cc1ccccc1 [Example 4, 1-benzyl-5-hydroxy-2-methyl-N-(1-(2-phenylethyl)-4-piperidyl)indole-3-carboxamide hydrochloride]
- inhibition in vivo at 0.5 mg/kg (histamine induced asthma; 1 h): 60%
- IC50 (5-lipoxygenase): 0.85 µM

Compound: Cc1c(C(=O)NC2CCN(CCc3ccccc3)CC2)c2cc(O)ccc2n1C(C)C [Example 5, 5-hydroxy-1-isopropyl-2-methyl-N-(1-(2-phenylethyl)-4-piperidyl)indole-3-carboxamide hydrochloride]
- inhibition in vivo at 0.5 mg/kg (histamine induced asthma; 1 h): 100%

Compound: CCCCCCn1c(C)c(C(=O)NC2CCN(CCc3ccccc3)CC2)c2cc(O)ccc21 [Example 10, 1-Hexyl-5-hydroxy-2-methyl-N-(1-(2-phenylethyl)-4-piperidyl)indole-3-carboxamide hydrochloride monohydrate]
- inhibition in vivo at 0.5 mg/kg (histamine induced asthma; 1 h): 20%
- inhibition in vivo at 2.5 mg/kg (histamine induced asthma; 1 h): 100%

Compound: Cc1c(C(=O)NC2CCN(CCc3ccccc3)CC2)c2cc(O)ccc2n1C1CCCCC1 [Example 12, 1-Cyclohexyl-5-hydroxy-2-methyl-N-(1-(2-phenylethyl)-4-piperidyl)indole-3-carboxamide hydrochloride hemihydrate]
- IC50 (5-lipoxygenase): 1.7 µM

Compound: CCCCn1c(C)c(C(=O)NC2CCN(CCOc3ccccc3)CC2)c2cc(O)ccc21 [Example 31, 1-Butyl-5-hydroxy-2-methyl-N-(1-(2-phenoxyethyl)-4-piperidyl)indole-3-carboxamide]
- IC50 (5-lipoxygenase): 0.26 µM

Compound: CCCCC/C=C\C\C=C/C=C/C=C/[C@@H](SC[C@H](NC(=O)CC[C@H](N)C(=O)O)C(=O)NCC(=O)O)[C@@H](O)CCCC(=O)O [LTC4]
- bronchoconstriction activity [1]: strong bronchoconstriction activity

Compound: Cc1c(C(=O)NC2CCN(CCCc3ccccc3)CC2)c2cc(O)ccc2n1-c1ccccc1 [Example 26, 5-Hydroxy-2-methyl-1-phenyl-N-(1-(3-phenylpropyl)-4-piperidyl)indole-3-carboxamide hydrochloride monohydrate]
- IC50 (5-lipoxygenase; [5]): 2.5 µM

Compound: Cc1c(C(=O)NC2CCN(CCc3ccccc3)CC2)c2cc(O)ccc2n1-c1ccccc1 [Example 29, 5-Hydroxy-2-methyl-N-(1-(2-phenylethyl)-4-piperidyl)-1-phenylindole-3-carboxamide hydrochloride]
- inhibition in vivo at 0.5 mg/kg (histamine induced asthma; 0.5 mg/kg, p.o., 1 hour before histamine aerosol, guinea pigs): 33%
- IC50 (5-lipoxygenase; [5]): 1.4 µM

Compound: Cc1c(C(=O)NC2CCN(CCc3ccccc3)CC2)c2cc(O)ccc2n1CC(C)C [Example 6, 5-Hydroxy-1-isobutyl-2-methyl-N-(1-(2-phenylethyl)-4-piperidyl)indole-3-carboxamide hydrochloride]
- inhibition in vivo at 0.5 mg/kg (histamine induced asthma; 1 h): 0%
- inhibition in vivo at 2.5 mg/kg (histamine induced asthma; 1 h): 60%
